# Experimental data taken from patent publication US20240041042A1, “1-(PYRIDYL)-5-AZINYLPYRAZOLE DERIVATIVES, AND THEIR USE FOR CONTROL OF UNDESIRED PLANT GROWTH” (Bayer Aktiengesellschaft, priority 2020, published 2024).
# Like-named read-outs stand apart in the source and are kept apart here.
# Columns and labels:
# Type in all cases: in vivo
# [1] = tested on: Alopecurus myosuroides (ALOMY); assay: Pre-emergence herbicidal action against ALOMY; conditions: scored visually after about 3 weeks, 100% = plants have died
# Method in brief: (§1)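 Greenhouse pot trial: seeds sown, soil-covered, sprayed before emergence with compound in water (0.5% additive; 600 l/ha; ≤320 g/ha). Scoring visual, ~3 weeks, 0–100% scale vs untreated.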
# [2] = tested on: Amaranthus retroflexus (AMARE); assay: Post-emergence herbicidal action against AMARE
# Method in brief: (§2)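 Values are percent visual activity (0% like control, 100% plants dead) after about 3 weeks in the greenhouse. Treatment: post-emergence spray at one-leaf stage, 600 l/ha spray volume, 0.5% additive, doses 320 g/ha or lower.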
# [3] = tested on: Amaranthus retroflexus (AMARE); assay: Pre-emergence herbicidal action against AMARE; conditions: visual scoring after about 3 weeks vs untreated controls
# Method in brief: as §1
# [4] = tested on: Polygonum convolvulus (POLCO); assay: Post-emergence herbicidal action against POLCO
# Method in brief: as §2
# [5] = tested on: Viola tricolor (VIOTR); assay: Pre-emergence herbicidal action against VIOTR
# Method in brief: as §1
# [6] = tested on: Zea mays (ZEAMX); conditions: pre-emergence, 80 g/ha, crop plant compatibility, in comparison to untreated controls
# Method in brief: (§3)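 Scoring: visual, % of untreated control, about 3 weeks after a pre-emergence application to the soil surface. Application used WP or EC formulations diluted in water with 0.5% additive at 600 l/ha; dosage levels are marked by suffixes a, b and c.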
# [7] = tested on: Oryza sativa (ORYSA); conditions: pre-emergence, 80 g/ha, crop plant compatibility, in comparison to untreated controls
# Method in brief: as §3
# [8] = tested on: Lolium rigidum (LOLRI); assay: Pre-emergence herbicidal action against LOLRI
# Method in brief: as §1
# [9] = tested on: Polygonum convolvulus (POLCO); assay: Pre-emergence herbicidal action against POLCO; conditions: dosage 320 g/ha
# Method in brief: as §1
# [10] = tested on: Setaria viridis (SETVI); assay: Pre-emergence herbicidal action against SETVI
# Method in brief: as §1
# [11] = tested on: Echinochloa crus-galli (ECHCG); assay: Pre-emergence herbicidal action against ECHCG; conditions: dosage 320 g/ha
# Method in brief: as §1
# [12] = tested on: Avena fatua (AVEFA); assay: Pre-emergence herbicidal action against AVEFA; conditions: 320 g/ha, visual scoring after about 3 weeks vs untreated controls
# Method in brief: as §1
# [13] = tested on: Verconica persica (VERPE); assay: Pre-emergence herbicidal action against VERPE; conditions: dosage 320 g/ha
# Method in brief: as §1
# [14] = tested on: Matricaria inodora (MATIN); assay: Pre-emergence herbicidal action against MATIN; conditions: dosage 320 g/ha
# Method in brief: as §1
# [15] = tested on: Digitaria sanguinalis (DIGSA); assay: Pre-emergence herbicidal action against DIGSA
# Method in brief: as §1
# [16] = tested on: Pharbitis purpurea (PHBPU); assay: Pre-emergence herbicidal action against PHBPU; conditions: dosage 320 g/ha
# Method in brief: as §1
# [17] = tested on: Verconica persica (VERPE); assay: Post-emergence herbicidal action against VERPE
# Method in brief: as §2
# [18] = tested on: Zea mays (ZEAMX); conditions: for Post-emergence action against ZEAMX in %: crop plant compatibility, effect vs untreated controls
# Method in brief: (§4)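 Greenhouse crops in sandy loam sprayed post-emergence at the one-leaf stage, 2–3 weeks after sowing, with WP or EC formulations in water plus 0.5% additive at 600 l/ha. Damage rated visually about 3 weeks later versus untreated controls (0% = like control, 100% = dead); suffixes a–c denote different doses.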
# [19] = tested on: Oryza sativa (ORYSA); conditions: crop plant compatibility
# Method in brief: as §4
# [20] = tested on: Pharbitis purpurea (PHBPU); assay: Post-emergence herbicidal action against PHBPU
# Method in brief: as §2
# [21] = tested on: Matricaria inodora (MATIN); assay: Post-emergence herbicidal action against MATIN; conditions: dosage 320 g/ha
# Method in brief: as §2
# [22] = tested on: Viola tricolor (VIOTR); assay: Post-emergence herbicidal action against VIOTR
# Method in brief: as §2
# [23] = tested on: Lolium rigidum (LOLRI); assay: Post-emergence herbicidal action against LOLRI; conditions: dosage 320 g/ha
# Method in brief: as §2
# [24] = tested on: Digitaria sanguinalis (DIGSA); assay: Post-emergence herbicidal action against DIGSA; conditions: 320 g/ha, visual rating about 3 weeks after treatment
# Method in brief: as §2
# [25] = tested on: Echinochloa crus-galli (ECHCG); assay: Post-emergence herbicidal action against ECHCG; conditions: dosage 320 g/ha
# Method in brief: as §2
# [26] = tested on: Avena fatua (AVEFA); assay: Post-emergence herbicidal action against AVEFA; conditions: visual rating about 3 weeks after treatment
# Method in brief: as §2
# [27] = tested on: Alopecurus myosuroides (ALOMY); assay: Post-emergence herbicidal action against ALOMY; conditions: visual rating about 3 weeks after treatment vs untreated controls (100% = plants have died, 0% = like control plants)
# Method in brief: as §2
# [28] = tested on: Setaria viridis (SETVI); assay: Post-emergence herbicidal action against SETVI
# Method in brief: as §2
# [29] = 80 g/ha, visual rating about 3 weeks after treatment vs untreated controls (100% = plants have died, 0% = like control plants)
# [30] = 80 g/ha, visual scoring after about 3 weeks vs untreated controls
# [31] = 80 g/ha, effect in comparison to untreated controls
# [32] = 320 g/ha, visual rating about 3 weeks after treatment
Structure (SMILES),Pre-emergence action against ALOMY ([1]; 320 g/ha) [%],"Post-emergence action against AMARE in % [2, 29] [%]",Pre-emergence action against AMARE in % ([3]; 320 g/ha) [%],"Pre-emergence action against VIOTR in % ([5]; 320 g/ha, Viola tricolor) [%]",Pre-emergence action against ZEAMX in % [6] [%],Pre-emergence action against ORYSA in % [7] [%],Pre-emergence action against LOLRI in % ([8]; dosage 320 g/ha) [%],Pre-emergence action against SETVI in % ([10]; dosage 320 g/ha) [%],Pre-emergence action against ECHCG in % [11] [%],Pre-emergence action against VERPE in % [13] [%],Pre-emergence action against MATIN in % [14] [%],"Pre-emergence action against DIGSA in % [15, 30] [%]",Pre-emergence action against DIGSA in % ([15]; dosage 320 g/ha) [%],"Post-emergence action against ORYSA in % [19, 31] [%]","Post-emergence action against AMARE in % [2, 32] [%]",Post-emergence action against PHBPU in % ([20]; dosage 320 g/ha) [%],Post-emergence action against POLCO in % ([4]; dosage 320 g/ha) [%],Post-emergence action against VIOTR in % ([22]; 320 g/ha) [%],"Post-emergence action against VERPE in % ([17]; 320 g/ha, VERPE) [%]",Post-emergence action against ZEAMX in % ([18]; 80 g/ha) [%],also measured
O=C(O)COc1nn(-c2ccccn2)c(-c2ccnc(F)c2)c1Br [Example I-122],100,90,100,100,0,0,100,100,100,100,80,100,100,0,–,–,–,–,–,–,"Pre-emergence action against ALOMY ([1]; 80 g/ha): 80%; Pre-emergence action against AMARE in % ([3]; 80 g/ha): 80%; Post-emergence action against POLCO in % ([4]; dosage 80 g/ha): 90%; Pre-emergence action against VIOTR in % ([5]; dosage 80 g/ha): 100%; Pre-emergence action against POLCO in % [9]: 80%; Pre-emergence action against SETVI in % ([10]; dosage 80 g/ha): 100%; Pre-emergence action against AVEFA in % [12]: 90%; Pre-emergence action against PHBPU in % [16]: 90%; Post-emergence action against VERPE in % ([17]; dosage 80 g/ha): 80%; Post-emergence action against ZEAMX in % (crop plant compatibility) ([18]; 20 g/ha, ZEAMX, effect in comparison to untreated controls): 0%; Post-emergence action against ORYSA in % ([19]; 20 g/ha, effect vs untreated controls): 0%"
COC(=O)CCOC(=O)COc1nn(-c2ccccn2)c(-c2ccc(Cl)nc2)c1Br [Example I-246],–,–,90,–,20,0,–,–,–,80,–,–,90,0,80,80,80,80,80,10,"Post-emergence action against PHBPU in % ([20]; dosage 80 g/ha): 80%; Post-emergence action against MATIN in % [21]: 80%; Post-emergence action against VIOTR in % ([22]; 80 g/ha): 80%; Post-emergence action against ORYSA in % ([19]; 320 g/ha, effect in comparison to untreated controls): 10%"
O=C(O)COc1nn(-c2nc(F)ccc2F)c(-c2ccc(F)nc2)c1C1CC1 [Example I-302],90,80,90,90,10,20,90,100,90,90,90,90,100,20,90,80,80,80,80,0,Post-emergence action against LOLRI in % [23]: 80%; Post-emergence action against DIGSA in % [24]: 80%; Post-emergence action against ECHCG in % [25]: 80%; Pre-emergence action against LOLRI in % ([8]; dosage 80 g/ha): 80%; Post-emergence action against AVEFA in % ([26]; 80 g/ha): 80%; Post-emergence action against AVEFA in % ([26]; 320 g/ha): 80%; Post-emergence action against ALOMY in % ([27]; 80 g/ha): 80%; Post-emergence action against ALOMY in % ([27]; 320 g/ha): 90%; Post-emergence action against ZEAMX in % ([18]; 320 g/ha): 10%; Post-emergence action against SETVI in % ([28]; dosage 80 g/ha): 80%; Post-emergence action against SETVI in % ([28]; dosage 320 g/ha): 90%
